What all share (assay): CDKi biochemical assay (TR-FRET, phosphorylation of S780 on RB1 peptide)
(Time-resolved FRET reads energy transfer from a long-lived donor to a nearby acceptor.)

One experiment deals with CDK2/CyclinE1 (Homo sapiens, UniProt P24941). To be noted: CDK2/CyclinE1 100 pM, 1 mM ATP, 60 min at 25° C. Here is the method:
(§1) Biochemical assays measured the inhibitory effects of compounds in this disclosure on the enzymatic activity of CDK enzyme in complex with Cyclin protein partner by phosphorylation of Ser-780 (S780) on retinoblastoma protein peptide (RB1) in the presence of 1 mM adenosime-5-triphosphate (ATP) and varying concentration of test compound in 20 mM 2-[4-(2-hydroxyethyl)paperazin-1-yl] ethanesulfonic acid (HEPES), pH 7.5, 10 mM MgCl2, 1 mM dithiothreitol (DTT), 0.01% bovine serum albumin (BSA), 0.005% Tween 20. Total Reaction volume of 10 μL proceeded for 60 minutes at room temperature (25° C.) and were quenched with 5 μL of 200 mM 2′,2″,2′″-(Ethane-1,2-diyldinitrilo)tetraacetic acid (EDTA) pH 8.0 before addition of 5 μL detection solution containing 100 nM fluorophore conjugate streptavidin allophycocyanin (SA-APC), 2 nM Europium labelled Anti-p-RB(S780)-K (Perkin Elmer, 64CUSKAY), 50 mM HEPES, pH 7.5, 400 mM potassium fluoride (KF), 0.1% BSA, and 0.01% Tween-20. Phosphorylation of S780 on RB1 peptide (His-MBP-RB1[773-924]-SEQ ID NO. 9) was detected by TR-FRET after 3 hour incubation with detection solution. Percent phosphorylation activity was plotted against log concentration of compound to generate an apparent ICSO. The following CDK enzyme in complex with different cyclin proteins and protein peptide substrate were used in these assays: • CDK1/CyclinB1, Avi-tag, 10 pM used in the assay • CDK2/CyclinE1, Avi-tag, 100 pM used in the assay • CDK4/cyclinD1, Avi-tag, 20 pM used in the assay • CDK6/cyclinD3, Avi-tag, 10 pM used in the assay • His-MBP-RB1[773-924], Avi-tag, 200 nM used in the assay
(§2) The avi-tag is a C-terminal fusion on the CDK1/2/4/6 sequence in each of these two-protein complexes. The known avi-tag sequence, […] (SEQ ID NO. 10), is a substrate for E. coli biotin ligase BirA, which covalently attaches a biotin molecule to the e-amino group of the lysine in that sequence. The avi-tag is attached with an 8 amino-acid linker sequence GGSGGGGS (SEQ ID NO. 11), resulting in the full C-terminal fusion
(§3) Recombinant proteins were generated as N-terminal fusions of 9× His tag—E. coli Maltose Binding Protein (MBP), with or without a C-terminal Avi-tag.^1 CDK2 and His-MBP-RB1[773-924]-c-avi were expressed in E. coli while the remainder were expressed in Sf21 insect cells. Genes were synthesized commercially (GeneArt and Twist Bioscience) using codon frequencies appropriate to the respective organisms and proprietary codon optimization strategies, and inserted into pET 24 (E. coli) or pDEST8 (insect) vectors already containing the 9× His-MBP tag using standard methods of PCR and Gibson Assembly.^2 E. coli expression was performed by auto-induction overnight at 18 or 21 C. For insect cell expression, bacmids and viruses were created,^3 then used to synchronously infect Sf21 insect cells with harvest at 40-48 hrs., per standard protocols.^4
(§4) For CDK2/Cyclin E and CDK1/Cyclin B, the CDK and Cyclin proteins were expressed separately, lysed by sonication and clarified by centrifugation. The fusion proteins were each separately purified by immobilized metal ion affinity chromatography (IMAC) (5 mL HisTrap, Cytiva) and Superdex 200 26/60 (Cytiva) size-exclusion and complexed in vitro (1-3 hrs incubation at room temperature) prior to tag cleavage by recombinant his-tagged Tobacco Etch Virus protease or his-tagged Human rhinovirus 3C protease, as appropriate. The cleaved complex is further purified by Superdex 75 26/60 (Cytiva) size-exclusion followed by reverse-IMAC, in which the complex is in the column flow-through and residual His-MBP and his-tagged proteases are retained. The final complex is concentrated as desired by centrifugal concentration (Amicon Ultra 10,000 Da MWCO 15 mL concentrators, Millipore).
For E. coli expressed CDK2 and His-MBP-RB1[773-924]-c-avi, the proteins were biotinylated in vitro after the first IMAC step.^1
(§5) For the is-MBP-RB1[773-924]-c-avi, the protein was lysed by sonication and clarified by centrifugation. […]

A further experiment has as its target CDK1/CyclinB1 (Homo sapiens, UniProt P06493). To be noted: CDK1/CyclinB1 10 pM, 1 mM ATP, 60 min at 25° C. The protocol: as §1, §2, §3, §4, §5
Another experiment has as its target CDK4/cyclinD1 (Homo sapiens, UniProt P11802). Conditions: CDK4/cyclinD1 20 pM, 1 mM ATP, 60 min at 25° C. The protocol: as §1, §2, §3
(§6) For CDK4/Cyclin D1 and CDK6/Cyclin D3, the complexes were expressed by simultaneous co-infection of insect cells by three separate viruses including one expressing untagged E. coli BirA. The expression media is supplemented with 50 uM d-biotin. The resulting protein complexes purified similarly. After lysis and clarification, the complex is purified by IMAC, Superdex 200 26/60 size exclusion, tag cleavage by human rhinovirus 3C protease, Superdex 75 26/60 size exclusion and reverse IMAC. BirA is typically not retained on the first IMAC, and excess CDK or Cyclin monomer is separated on the Superdex 200 size exclusion. Cleaved His-MBP and remaining monomer are removed by the Superdex 75 size exclusion and the reverse IMAC step. Final concentration by centrifugal concentrators as described above.
as §5

A further experiment has as its target CDK6/cyclinD3 (Homo sapiens, UniProt Q00534). To be noted: CDK6/cyclinD3 10 pM, 1 mM ATP, 60 min at 25° C. Here is the method: as §1, §2, §3, §6, §5

Where only a bound is given, the exact number is not on record here.

We go through 12 compounds from patent publication US20240360137A1 (Novartis AG, priority 2023, published 2024).

Broadly, the IC50 is the concentration needed to halve the response being measured. A lower IC50 goes with greater potency in that assay. Regarding `O=C1N([C@@H]2CCC[C@@H](O)C2)c2nc(Nc3c[nH]nc3OCC3CC4(COC4)C3)ncc2C12CC2` [Example 54, 2′-((3-((2-oxaspiro[3.3]heptan-6-yl)methoxy)-1H-pyrazol-4-yl)amino)-7′-((1R,3R)-3-hydroxycyclohexyl)spiro[cyclopropane-1,5′-pyrrolo[2,3-d]pyrimidin]-6′(7′H)-one], the half-inhibitory concentration (IC50) was 0.134 µM at CDK2/CyclinE1, at least 10 µM on CDK1/CyclinB1, at least 10 µM on CDK4/cyclinD1 and at least 10 µM on CDK6/cyclinD3.
In the case of `Cn1ncc(-c2n[nH]cc2Nc2ncc3c(n2)N([C@@H]2CCC[C@@H](O)C2)C(=O)C32CC2)c1C(F)F` [Example 31, 2′-((5′-(difluoromethyl)-1′-methyl-1H,1′H-[3,4′-bipyrazol]-4-yl)amino)-7′-((1R,3R)-3-hydroxycyclohexyl)spiro[cyclopropane-1,5′-pyrrolo[2,3-d]pyrimidin]-6′(7′H)-one], the 50% inhibitory concentration (IC50) on CDK2/CyclinE1 worked out at 0.021 µM; on CDK1/CyclinB1, 6.57 µM; against CDK4/cyclinD1, 6.3 µM; against CDK6/cyclinD3 it was 9.7 µM.
In the same order, the values of `CCOc1n[nH]cc1Nc1ncc2c(n1)N([C@@H]1CCC[C@@H](O)C1)C(=O)C21CC1` [Example 23, 2′-((3-ethoxy-1H-pyrazol-4-yl)amino)-7′-((1R,3R)-3-hydroxycyclohexyl)spiro[cyclopropane-1,5′-pyrrolo[2,3-d]pyrimidin]-6′(7′H)-one] are 0.015 µM, 2.43 µM, 9.45 µM and at least 10 µM.
On the same counts, the results for `O=C1N([C@@H]2CCC[C@@H](O)C2)c2nc(Nc3c[nH]nc3OCC3(F)COC3)ncc2C12CC2` [Example 48, 2′-((3-((3-fluorooxetan-3-yl)methoxy)-1H-pyrazol-4-yl)amino)-7′-((1R,3R)-3-hydroxycyclohexyl)spiro[cyclopropane-1,5′-pyrrolo[2,3-d]pyrimidin]-6′(7′H)-one] are 0.022 µM, 3.25 µM, 1.54 µM and at least 10 µM.
Regarding `COC(=O)c1n[nH]cc1Nc1ncc2c(n1)N([C@@H]1CCC[C@@H](O)C1)C(=O)C21CC1` [Example 4, methyl 4-((7′-((1R,3R)-3-hydroxycyclohexyl)-6′-oxo-6′,7′-dihydrospiro[cyclopropane-1,5′-pyrrolo[2,3-d]pyrimidin]-2′-yl)amino)-1H-pyrazole-3-carboxylate], the half-inhibitory concentration (IC50) is 0.096 µM against CDK2/CyclinE1, at least 10 µM against CDK1/CyclinB1, at least 10 µM against CDK4/cyclinD1 and at least 10 µM against CDK6/cyclinD3.
Take `O=C1N([C@@H]2CCC[C@@H](O)C2)c2nc(Nc3c[nH]nc3O[C@@H]3CC3(F)F)ncc2C12CC2` [Example 70, 2′-((3-((R)-2,2-difluorocyclopropoxy)-1H-pyrazol-4-yl)amino)-7′-((1R,3R)-3-hydroxycyclohexyl)spiro[cyclopropane-1,5′-pyrrolo[2,3-d]pyrimidin]-6′(7′H)-one]: the IC50 was 0.006 µM at CDK2/CyclinE1, 0.82 µM at CDK1/CyclinB1, 7.69 µM against CDK4/cyclinD1 and at least 10 µM at CDK6/cyclinD3.
In the same order, the values of `O=C1N([C@@H]2CCC[C@@H](O)C2)c2nc(Nc3c[nH]nc3OC[C@H]3COCCO3)ncc2C12CC2` [Example 66, 2′-((3-(((R)-1,4-dioxan-2-yl)methoxy)-1H-pyrazol-4-yl)amino)-7′-((1R,3R)-3-hydroxycyclohexyl)spiro[cyclopropane-1,5′-pyrrolo[2,3-d]pyrimidin]-6′(7′H)-one] are 0.051 µM, 4.22 µM, at least 10 µM and at least 10 µM.
On the same counts, the results for `O=C1N([C@@H]2CCC[C@@H](O)C2)c2nc(Nc3c[nH]nc3OC[C@H]3CCOC3)ncc2C12CC2` [Example 72, 7′-((1R,3R)-3-hydroxycyclohexyl)-2′-((3-(((S)-tetrahydrofuran-3-yl)methoxy)-1H-pyrazol-4-yl)amino)spiro[cyclopropane-1,5′-pyrrolo[2,3-d]pyrimidin]-6′(7′H)-one] are 0.061 µM, 7.5 µM, at least 10 µM and at least 10 µM.
Consider `Cn1cc(-c2n[nH]cc2Nc2ncc3c(n2)N([C@@H]2CCC[C@@H](O)C2)C(=O)C32CC2)cn1` [Example 80, 7′-((1R,3R)-3-hydroxycyclohexyl)-2′-((1′-methyl-1H,1′H-[3,4′-bipyrazol]-4-yl)amino)spiro[cyclopropane-1,5′-pyrrolo[2,3-d]pyrimidin]-6′(7′H)-one], for which the IC50 at CDK2/CyclinE1 was 0.029 µM; on CDK1/CyclinB1, 6.01 µM; against CDK4/cyclinD1, 9.3 µM; on CDK6/cyclinD3, at least 10 µM.
With `O=C1N([C@@H]2CCC[C@@H](O)C2)c2nc(Nc3c[nH]nc3O[C@@H]3COC[C@@H]3F)ncc2C12CC2` [Example 26, 2′-((3-(((3R,4S)-4-fluorotetrahydrofuran-3-yl)oxy)-1H-pyrazol-4-yl)amino)-7′-((1R,3R)-3-hydroxycyclohexyl)spiro[cyclopropane-1,5′-pyrrolo[2,3-d]pyrimidin]-6′(7′H)-one], the half-inhibitory concentration (IC50) at CDK2/CyclinE1 is 0.059 µM; against CDK1/CyclinB1, at least 10 µM; against CDK4/cyclinD1, 5.35 µM; at CDK6/cyclinD3 it was 8.5 µM.
In the same order, the values of `O=C1N([C@@H]2CCC[C@@H](O)C2)c2nc(Nc3c[nH]nc3OCC(F)F)ncc2C12CC2` [Example 41, 2′-((3-(2,2-difluoroethoxy)-1H-pyrazol-4-yl)amino)-7′-((1R,3R)-3-hydroxycyclohexyl)spiro[cyclopropane-1,5′-pyrrolo[2,3-d]pyrimidin]-6′(7′H)-one] are 0.005 µM, 0.73 µM, 2.68 µM and 5.09 µM.
Consider `O=C1N([C@@H]2CCC[C@@H](O)C2)c2nc(Nc3c[nH]nc3OCCO)ncc2C12CC2` [Example 42, 7′-((1R,3R)-3-hydroxycyclohexyl)-2′-((3-(2-hydroxyethoxy)-1H-pyrazol-4-yl)amino)spiro[cyclopropane-1,5′-pyrrolo[2,3-d]pyrimidin]-6′(7′H)-one], for which the half-inhibitory concentration (IC50) at CDK2/CyclinE1 came out at 0.024 µM; at CDK1/CyclinB1, 3.74 µM; against CDK4/cyclinD1, 3.64 µM; at CDK6/cyclinD3 it was 3.01 µM.
